Experimental findings from patent publication US20240368214A1, “POSITIVE NMDA-MODULATING COMPOUNDS AND METHODS OF USE THEREOF” (SAGE THERAPEUTICS, INC., priority 2021, published 2024) are described below.

The structures appear in SMILES notation. Like-named read-outs stand apart in the source and are kept apart here.

For this assay, the target named is T1, recombinant human GluN1/GluN2A receptor (Homo sapiens, UniProt Q05586+Q12879).
T1 construct: expressed in transfected cells; host or cells: HEK293, tetracycline-inducible expression
Nature of the assay: Whole-cell patch clamp of mammalian cells (Syncropatch 384i), NMDA modulation. In kind it is cell-based. To be noted: HEK293 cells, human GluN1/GluN2A, glutamate 1 μM / glycine 100 μM, -80 mV, peak amplitude increase; for EC50: read-out: EC50. In outline:
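Modulation read as fold rise in peak current, (Icomp/Icontrol)−1, from 8 concentrations with ≥2 wells each, four-parameter fit. Compound pre-incubated 120 s then co-applied with 1 μM glutamate plus 100 μM glycine; tetracycline-inducible HEK293 GluN1/GluN2A cells clamped at −80 mV.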
(In general: In patch-clamp work, channel activity is measured electrically.)

T1 sequence (Q12879 23-1464, other chains not shown): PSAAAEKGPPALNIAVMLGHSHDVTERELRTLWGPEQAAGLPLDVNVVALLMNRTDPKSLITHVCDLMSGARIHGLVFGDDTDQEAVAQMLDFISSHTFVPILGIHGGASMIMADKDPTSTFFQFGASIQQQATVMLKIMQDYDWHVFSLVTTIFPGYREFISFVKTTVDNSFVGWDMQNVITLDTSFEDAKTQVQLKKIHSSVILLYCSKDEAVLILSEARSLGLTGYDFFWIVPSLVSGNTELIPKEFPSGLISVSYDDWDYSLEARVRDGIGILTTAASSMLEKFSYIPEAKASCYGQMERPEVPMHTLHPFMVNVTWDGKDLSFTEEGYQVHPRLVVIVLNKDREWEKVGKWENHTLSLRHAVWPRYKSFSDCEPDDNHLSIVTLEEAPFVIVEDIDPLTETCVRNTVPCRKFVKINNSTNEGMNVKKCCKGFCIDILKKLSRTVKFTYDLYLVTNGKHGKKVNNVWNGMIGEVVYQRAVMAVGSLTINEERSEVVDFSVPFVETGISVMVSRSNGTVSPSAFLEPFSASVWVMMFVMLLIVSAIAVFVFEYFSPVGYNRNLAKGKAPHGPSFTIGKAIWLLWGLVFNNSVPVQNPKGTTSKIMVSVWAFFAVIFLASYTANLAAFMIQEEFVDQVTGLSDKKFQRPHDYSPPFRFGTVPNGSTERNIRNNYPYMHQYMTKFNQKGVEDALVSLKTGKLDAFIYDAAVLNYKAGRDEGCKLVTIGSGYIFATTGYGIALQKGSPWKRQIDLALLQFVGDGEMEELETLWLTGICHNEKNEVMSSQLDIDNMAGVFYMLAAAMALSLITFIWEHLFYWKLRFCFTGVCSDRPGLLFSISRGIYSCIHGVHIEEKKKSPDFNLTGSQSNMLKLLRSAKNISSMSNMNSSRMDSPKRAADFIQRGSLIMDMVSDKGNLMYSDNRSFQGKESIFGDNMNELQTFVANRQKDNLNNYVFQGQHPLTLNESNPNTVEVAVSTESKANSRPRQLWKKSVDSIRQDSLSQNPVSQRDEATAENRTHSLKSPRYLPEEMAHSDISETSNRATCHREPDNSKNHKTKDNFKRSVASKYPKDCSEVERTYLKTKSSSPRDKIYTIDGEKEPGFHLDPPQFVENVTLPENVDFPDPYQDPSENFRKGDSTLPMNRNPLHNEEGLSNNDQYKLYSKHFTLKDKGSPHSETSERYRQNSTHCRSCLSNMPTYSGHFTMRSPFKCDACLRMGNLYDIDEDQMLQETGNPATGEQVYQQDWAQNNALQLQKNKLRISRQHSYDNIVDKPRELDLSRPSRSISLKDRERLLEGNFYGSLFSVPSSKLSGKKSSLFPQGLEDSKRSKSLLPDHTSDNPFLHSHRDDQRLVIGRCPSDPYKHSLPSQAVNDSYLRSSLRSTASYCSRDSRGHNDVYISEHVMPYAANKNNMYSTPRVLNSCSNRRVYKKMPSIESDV

Consider `C[C@H](CC[C@H](O)C1(C#N)CCC1)[C@H]1CC[C@H]2[C@@H]3CC[C@H]4C[C@@](C)(O)CC[C@]4(C)C3=CC[C@]12C` [Compound C-30, 1-((1S,4R)-1-hydroxy-4-((3S,5S,8S,10S,13R,14S,17R)-3-hydroxy-3,10,13-trimethyl-2,3,4,5,6,7,8,10,12,13,14,15,16,17-tetradecahydro-1H-cyclopenta[a]phenanthren-17-yl)pentyl)cyclobutane-1-carbonitrile], for which the EC50 (commonly the concentration needed to bring the measured effect to its halfway point) by setting is: (Table C-2) 100 to 500 nM; (Table E-2) 100 to 500 nM.
Take `C[C@H](CC[C@@H](O)C1(C#N)CCC1)[C@H]1CC[C@H]2[C@@H]3CC[C@H]4C[C@@](C)(O)CC[C@]4(C)C3=CC[C@]12C` [Compound C-31, 1-((1R,4R)-1-hydroxy-4-((3S,5S,8S,10S,13R,14S,17R)-3-hydroxy-3,10,13-trimethyl-2,3,4,5,6,7,8,10,12,13,14,15,16,17-tetradecahydro-1H-cyclopenta[a]phenanthren-17-yl)pentyl)cyclobutane-1-carbonitrile]: the EC50 reads like this: (Table C-2) 1 to 100 nM; (Table E-2) 1 to 100 nM.
`C[C@H](CC[C@@H](O)C1(C#N)CC1)[C@H]1CC[C@H]2[C@@H]3CC[C@H]4C[C@@](C)(O)CC[C@]4(C)C3=CC[C@]12C` [Compound C-32, 1-((1R,4R)-1-hydroxy-4-((3S,5S,8S,10S,13R,14S,17R)-3-hydroxy-3,10,13-trimethyl-2,3,4,5,6,7,8,10,12,13,14,15,16,17-tetradecahydro-1H-cyclopenta[a]phenanthren-17-yl)pentyl)cyclopropane-1-carbonitrile]: the EC50 (Table C-2) was 1 to 100 nM and the EC50 (Table E-2) fell in the range of 1 to 100 nM.
Consider `C[C@H](CC[C@H](O)C1(C#N)CC1)[C@H]1CC[C@H]2[C@@H]3CC[C@H]4C[C@@](C)(O)CC[C@]4(C)C3=CC[C@]12C` [Compound C-33, 1-((1S,4R)-1-hydroxy-4-((3S,5S,8S,10S,13R,14S,17R)-3-hydroxy-3,10,13-trimethyl-2,3,4,5,6,7,8,10,12,13,14,15,16,17-tetradecahydro-1H-cyclopenta[a]phenanthren-17-yl)pentyl)cyclopropane-1-carbonitrile], for which the EC50 was in the range of 100 to 500 nM (Table C-2) and 100 to 500 nM (Table E-2).
As to `C[C@H](CC[C@@H](O)C(C)(C)C#N)[C@H]1CC[C@H]2[C@@H]3CC[C@H]4C[C@@](C)(O)CC[C@]4(C)C3=CC[C@]12C` [Compound C-34, (3R,6R)-3-hydroxy-6-((3S,5S,8S,10S,13R,14S,17R)-3-hydroxy-3,10,13-trimethyl-2,3,4,5,6,7,8,10,12,13,14,15,16,17-tetradecahydro-1H-cyclopenta[a]phenanthren-17-yl)-2,2-dimethylheptanenitrile], the EC50 was in the range of 1 to 100 nM (Table C-2) and 1 to 100 nM (Table E-2).
Take `C[C@H](CC[C@H](O)C(C)(C)C#N)[C@H]1CC[C@H]2[C@@H]3CC[C@H]4C[C@@](C)(O)CC[C@]4(C)C3=CC[C@]12C` [Compound C-35, (3S,6R)-3-hydroxy-6-((3S,5S,8S,10S,13R,14S,17R)-3-hydroxy-3,10,13-trimethyl-2,3,4,5,6,7,8,10,12,13,14,15,16,17-tetradecahydro-1H-cyclopenta[a]phenanthren-17-yl)-2,2-dimethylheptanenitrile]: the 50% effective concentration (EC50) fell in the range of 1 to 100 nM (Table C-2) and 1 to 100 nM (Table E-2).
`CC[C@@]1(O)CC[C@@H]2CC[C@@H]3[C@H](CC[C@]4(C)[C@@H]([C@H](C)CC[C@@](C)(O)C(F)(F)F)CC[C@@H]34)[C@@]2(C)CC1` [Compound D-1, (1R,3aS,3bR,5aS,8R,10aS,10bS,12aR)-8-ethyl-10a,12a-dimethyl-1-((2R,5R)-6,6,6-trifluoro-5-hydroxy-5-methylhexan-2-yl)octadecahydrocyclohepta[a]cyclopenta[f]naphthalen-8-ol]: where the note is “Table D-2”, the Emax (as a rule, the size of the effect at its maximum, as opposed to the concentration needed) is below 100% and the 50% effective concentration (EC50) is above 1000 nM.
With `CC[C@]1(O)CC[C@@H]2CC[C@@H]3[C@H](CC[C@]4(C)[C@@H]([C@H](C)CC[C@@](C)(O)C(F)(F)F)CC[C@@H]34)[C@@]2(C)CC1` [Compound D-2, (1R,3aS,3bR,5aS,8S,10aS,10bS,12aR)-8-ethyl-10a,12a-dimethyl-1-((2R,5R)-6,6,6-trifluoro-5-hydroxy-5-methylhexan-2-yl)octadecahydrocyclohepta[a]cyclopenta[f]naphthalen-8-ol], for the setting “Table D-2”, the Emax is below 100% and the EC50 was above 1000 nM.
On to `CC[C@@]1(O)CC[C@@H]2CC[C@@H]3[C@H](CC[C@]4(C)[C@@H]([C@H](C)CC[C@](C)(O)C(F)(F)F)CC[C@@H]34)[C@@]2(C)CC1` [Compound D-3, (1R,3aS,3bR,5aS,8R,10aS,10bS,12aR)-8-ethyl-10a,12a-dimethyl-1-((2R,5S)-6,6,6-trifluoro-5-hydroxy-5-methylhexan-2-yl)octadecahydrocyclohepta[a]cyclopenta[f]naphthalen-8-ol], for which, under “Table D-2”, the Emax was 100 to 200% and the concentration for a half-maximal effect (EC50) fell in the range of 100 to 500 nM.
With `CC[C@]1(O)CC[C@@H]2CC[C@@H]3[C@H](CC[C@]4(C)[C@@H]([C@H](C)CC[C@](C)(O)C(F)(F)F)CC[C@@H]34)[C@@]2(C)CC1` [Compound D-4, (1R,3aS,3bR,5aS,8S,10aS,10bS,12aR)-8-ethyl-10a,12a-dimethyl-1-((2R,5S)-6,6,6-trifluoro-5-hydroxy-5-methylhexan-2-yl)octadecahydrocyclohepta[a]cyclopenta[f]naphthalen-8-ol], the EC50 (Table D-2) is above 1000 nM.
For the compound `CC[C@]1(O)CCC[C@@]2(C)[C@@H](CC[C@@H]3[C@@H]2CC[C@]2(C)[C@@H]([C@H](C)CC[C@@](C)(O)C(F)(F)F)CC[C@@H]32)C1` [Compound D-5, (1R,3aS,3bR,5aS,7S,10aS,10bS,12aR)-7-ethyl-10a,12a-dimethyl-1-((2R,5R)-6,6,6-trifluoro-5-hydroxy-5-methylhexan-2-yl)octadecahydrocyclohepta[a]cyclopenta[f]naphthalen-7-ol], under “Table D-2”, the Emax was below 100% and the EC50 was 100 to 500 nM.
As to `CC[C@@]1(O)CCC[C@@]2(C)[C@@H](CC[C@@H]3[C@@H]2CC[C@]2(C)[C@@H]([C@H](C)CC[C@@](C)(O)C(F)(F)F)CC[C@@H]32)C1` [Compound D-6, (1R,3aS,3bR,5aS,7R,10aS,10bS,12aR)-7-ethyl-10a,12a-dimethyl-1-((2R,5R)-6,6,6-trifluoro-5-hydroxy-5-methylhexan-2-yl)octadecahydrocyclohepta[a]cyclopenta[f]naphthalen-7-ol], for the setting “Table D-2”, the Emax fell in the range of 100 to 200% and the concentration for a half-maximal effect (EC50) was 1 to 100 nM.
The corresponding values for `CC[C@]1(O)CCC[C@@]2(C)[C@@H](CC[C@@H]3[C@@H]2CC[C@]2(C)[C@@H]([C@H](C)CC[C@](C)(O)C(F)(F)F)CC[C@@H]32)C1` [Compound D-7, (1R,3aS,3bR,5aS,7S,10aS,10bS,12aR)-7-ethyl-10a,12a-dimethyl-1-((2R,5S)-6,6,6-trifluoro-5-hydroxy-5-methylhexan-2-yl)octadecahydrocyclohepta[a]cyclopenta[f]naphthalen-7-ol] are 100 to 200% and 1 to 100 nM.
The corresponding values for `CC[C@]1(O)CCC[C@@]2(C)C(=CC[C@H]3[C@@H]4CC[C@H]([C@H](C)CCC(C)(C)O)[C@@]4(C)CC[C@@H]32)C1` [Compound D-9, (1R,3aS,3bS,7S,10aR,10bS,12aR)-7-ethyl-1-((R)-5-hydroxy-5-methylhexan-2-yl)-10a,12a-dimethyl-1,2,3,3a,3b,4,6,7,8,9,10,10a,10b,11,12,12a-hexadecahydrocyclohepta[a]cyclopenta[f]naphthalen-7-ol] are 100 to 200% and 100 to 500 nM.
With `C[C@H](CC[C@](C)(O)C(F)(F)F)[C@H]1CC[C@H]2[C@@H]3CC=C4C[C@](C)(O)CCC[C@]4(C)[C@H]3CC[C@]12C` [Compound D-14, (1R,3aS,3bS,7R,10aR,10bS,12aR)-7,10a,12a-trimethyl-1-((2R,5S)-6,6,6-trifluoro-5-hydroxy-5-methylhexan-2-yl)-1,2,3,3a,3b,4,6,7,8,9,10,10a, 10b, 11,12,12a-hexadecahydrocyclohepta[a]cyclopenta[f]naphthalen-7-ol], the EC50 (Table D-2) was above 1000 nM.
Regarding `C[C@H](CC[C@](C)(O)C(F)(F)F)[C@H]1CC[C@H]2[C@@H]3CC=C4C[C@@](C)(O)CCC[C@]4(C)[C@H]3CC[C@]12C` [Compound D-15, (1R,3aS,3bS,7S,10aR,10bS,12aR)-7,10a,12a-trimethyl-1-((2R,5S)-6,6,6-trifluoro-5-hydroxy-5-methylhexan-2-yl)-1,2,3,3a,3b,4,6,7,8,9,10,10a,10b,11,12,12a-hexadecahydrocyclohepta[a]cyclopenta[f]naphthalen-7-ol], for the setting “Table D-2”, the Emax was below 100% and the EC50 lay in the range of 100 to 500 nM.
The corresponding values for `CC[C@@]1(O)CCC[C@@]2(C)C(=CC[C@H]3[C@@H]4CC[C@H]([C@H](C)CC[C@](C)(O)C(F)(F)F)[C@@]4(C)CC[C@@H]32)C1` [Compound D-16, (1R,3aS,3bS,7R,10aR,10bS,12aR)-7-ethyl-10a,12a-dimethyl-1-((2R,5S)-6,6,6-trifluoro-5-hydroxy-5-methylhexan-2-yl)-1,2,3,3a,3b,4,6,7,8,9,10,10a,10b,11,12,12a-hexadecahydrocyclohepta[a]cyclopenta[f]naphthalen-7-ol] are below 100% and above 1000 nM.
